Data reported in patent US20240025849A1 (MAX DELBRÜCK-CENTRUM FÜR MOLEKULARE MEDIZIN IN DER …, priority 2020, published 2024).
“Also recorded” adds a separate entry of the source.

Experiments:
Microglial cells = assay: Microchemotaxis assay (Boyden chamber): chemotaxis and motility; format: cell-based, mouse
Description: Microchemotaxis assay. The effect of the compound on directed migration and general motility was tested using a 48-well microchemotaxis Boyden chamber (Neuroprobe, Gaithersburg, USA). Upper and lower wells were separated by polycarbonate filter (8 μm pore size; Poretics). Microglial cells (2-4×10^4 cells) in 50 μl plain medium were added to the upper compartment. In addition, 2.5 μM of compound in DMSO, 125×10-5 v/v DMSO respectively, and/or 100 μM ATP were added to the upper and/or lower chamber, as shown in FIG. 3A. Plain medium was used as a control. The chamber was incubated at 37° C. and 5% CO2 for 6 h. Cells remaining on the upper surface of the membrane were removed by wiping, and cells in the lower compartment were fixed in methanol for 10 min and subjected to Diff-Quik stain (Medion Grifols Diagnostics AG, Dudingen, Switzerland). The rate of microglial migration was calculated by counting cells in four random fields of each well using a 20×bright-field objective. All data were normalised to ATP induced chemotaxis.

[1] = system: C57Bl/6 mice after 30 minutes MCAO; assay: Middle cerebral artery occlusion (MCAO) model of mild ischemic injury; format: in vivo, mouse; conditions: 5 mg/kg i.p. daily
Description: Animals and Group Allocation for middle cerebral artery occlusion (MCAO) study. C57BL/6 (13 weeks old, Charles River, Germany) male mice were handled according to governmental (LaGeSo-G0249/15) and internal (MDC/Charitd) rules and regulations, having free access to food and water. A total of 24 male mice were analysed after a 30 minutes of left-sided MCAO. Animals were randomly attributed to treatment paradigms, and experimenters were blinded at all stages of interventions. The mice were injected intraperitoneally (i.p.) every day for the 7 days, subsequently of the behavioral tests, with the compound (n=11) or with the vehicle ([…], n=13).
Induction of cerebral ischemia. Mice were anesthetized for induction with 3-4% isoflurane and maintained in 1.5% isoflurane in 70% N2O and 30% O2 using a vaporizer. MCAO was essentially performed as described elsewhere (Endres et al., 2000). In brief, brain ischemia was induced with a silicone rubber-coated monofilament 7-0, diameter 0.06-0.09 mm, length 20 mm; diameter with coating […]; coating length 9-10 mm. The filament was introduced into the internal carotid artery up to the anterior cerebral artery. Thereby, the middle cerebral artery and anterior choroidal arteries were occluded. The filament was removed after 30 min to allow reperfusion.
MRI was performed using a 7 Tesla rodent scanner (Pharmascan 70/16, Bruker BioSpin, Bruker, Billerica, USA) with a 16 cm horizontal bore magnet and a 9 cm (inner diameter) shielded gradient with an H-resonance-frequency of 300 MHz and a maximum gradient strength of 300 mT/m. For imaging a 20 mm-1H-RF quadrature-volume resonator with an inner diameter of 20 mm was used. Data acquisition and image processing were carried out with the Bruker software Paravision 5.1. During the examinations mice were placed on a heated circulating water blanket to ensure constant body temperature of 37° C. Anaesthesia was induced with 2.5% and maintained with 2.0-1.5% isoflurane (Forene, Abbot, Wiesbaden, Germany) delivered in an O2/N2 mixture (0.3/0.7 L/min) via a facemask under constant ventilation monitoring (Small Animal Monitoring & Gating System, SA Instruments, New York, USA). For imaging the mouse brain a T2-weighted 2D turbo spin-echo sequence was used (imaging parameters TR/TE=4200/36 ms, rare factor 8, 4 averages, 32 axial slices with a slice thickness of 0.5 mm, field of view of 2.56×2.56 cm, matrix size 256×256).
Calculation of lesion volume was carried out with the program Analyze 10.0 (AnalyzeDirect, Inc., Overland Park, USA). The hyperintense ischemic areas in axial T2-weighted images were assigned with a region of interest tool. This enables threshold based segmentation by connecting all pixels within a specified threshold range about the selected seed pixel and results in 3D object map of the whole stroke region. Further the total volume of the whole object map was automatically calculated.
The Rotarod test was performed to access motor coordination using a treadmill with a diameter of 3 cm (TSE Systems, Chesterfield, USA). This test was performed with accelerating velocity (4-40 rpm) and maximal velocity was achieved after 300 s. The time until the animals dropped was measured. Animals were trained on day 2 and 3 before MCAO and baseline was taken on the day before MCAO. Tests were always performed four times and means were used for statistical analysis.
A vertical pole (80 cm high with rough surface) was used for this test, to analyse extrapyramidal motor locomotion. Mice were placed head upward on the top of the pole. The time taken to orientate the body completely downwards, making a 180° turn (t turn), and to reach the floor with all four paws (t down) were recorded. If the animal was unsuccessful for either task, it was scored the maximum time that any other animal from the same experimental group took to perform the task. Animals were trained on day 2 and 3 before MCAO and baseline was taken on the day before MCAO. […]

COc1ccc(NC(=O)C(NC(=O)C2CCCN2C(=O)OCc2ccccc2)c2ccc(OC)cc2)cc1 (stereo not drawn) [C1]
ATP induced motility (Microglial cells; 2.5 μM C1, 100 μM ATP): neither changed; also recorded: not altered
microglial motility (Microglial cells; 2.5 μM C1 on both sides of the chamber): reduced in the presence of C1 significantly compared to plain medium (p=0.0018) but not to DMSO; also recorded: did not significantly affect motility compared to the DMSO control, however it did, when compared to the plain medium control
chemotaxis (cells migrating towards C1) (Microglial cells; gradient of 2.5 μM C1, 6 h): increased chemotaxis significantly; also recorded: significantly higher
pole test, time descending the pole ([1]; day 2 after MCAO): 6.592 s
pole test, time to turn 180° ([1]; day 2 after MCAO): 1.175 s
accelerated Rotarod test ([1]; day 2 and 5 after MCAO, vs vehicle): no differences; also recorded: No significant difference
volume of the ischemic lesion (MRI) ([1]; day 3 after MCAO, vs vehicle): did not cause a significant difference; also recorded: No significant difference
pole test, difference to control group ([1]; day 5 after MCAO): No differences were observed
corner test, turns to the left in 10 turns ([1]; day 6 after MCAO): 7.00
